Measured values from PubChem BioAssay (NCI).
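Following 48 hours of exposure in 96-well plates, responses at five concentrations were used to interpolate endpoints linearly. GI50 is the concentration that inhibits growth by half. TGI: concentration producing complete growth inhibition.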

Assays:
Assay in all cases: NCI anticancer screen, dose series, 48 h
A549 NSCLC = system: A549 NSCLC
ACHN renal = system: ACHN renal
COLO 205 colon = system: COLO 205 colon
EKVX NSCLC = system: EKVX NSCLC
K-562 leukemia = system: K-562 leukemia
OVCAR-4 ovarian = system: OVCAR-4 ovarian
SK-OV-3 ovarian = system: SK-OV-3 ovarian
UACC-62 melanoma = system: UACC-62 melanoma
HOP-92 NSCLC = system: HOP-92 NSCLC
NCI-H226 lung = system: NCI-H226 lung

Structure (SMILES) | TGI (A549 NSCLC) | TGI (ACHN renal) | TGI (COLO 205 colon) | TGI (EKVX NSCLC) | TGI (K-562 leukemia) | TGI (OVCAR-4 ovarian) | TGI (SK-OV-3 ovarian) | TGI (UACC-62 melanoma) | GI50 (A549 NSCLC) | GI50 (ACHN renal) | GI50 (COLO 205 colon) | GI50 (EKVX NSCLC) | GI50 (HOP-92 NSCLC) | TGI (HOP-92 NSCLC) | GI50 (K-562 leukemia) | GI50 (SK-OV-3 ovarian) | GI50 (UACC-62 melanoma) | GI50 (NCI-H226 lung) | TGI (NCI-H226 lung) | GI50 (OVCAR-4 ovarian)
Cc1ccccc1C1=C(C(=O)Nc2ccc(Cl)c(Cl)c2)NC(=S)NC1N (configuration not stated) | > 100 µM | > 100 µM | > 100 µM | > 100 µM | > 100 µM | > 100 µM | > 100 µM | > 100 µM |  |  |  |  |  |  |  |  |  |  |  | 
Nc1ccccc1C#C/C=C\C#Cc1ccccc1[N+](=O)[O-] | 21.3 µM | 19 µM | 22 µM | 17.8 µM | 5.93 µM |  | 60.9 µM | 10.6 µM | 4.42 µM | 5.3 µM | 4.38 µM | 2.51 µM | 31.7 µM | > 100 µM | 0.533 µM | 9.26 µM | 2.02 µM |  |  | 
Cc1cccc(C)c1NC(=O)C1C(=O)N(c2c(C)cccc2C)C(=O)/C1=N\NC(N)=S (configuration not stated) | > 100 µM | > 100 µM |  | > 100 µM | > 100 µM | > 100 µM |  | > 100 µM |  |  |  |  |  | > 100 µM |  |  |  |  |  | 
NC(N)=NCCC1OC(=O)C2=C1c1c(O)ccc3nccc(c13)O2 (configuration not stated) | > 100 µM | > 100 µM | > 100 µM | > 100 µM | > 100 µM |  | > 100 µM | > 100 µM | > 100 µM | > 100 µM | > 100 µM | > 100 µM |  |  | > 100 µM | > 100 µM | > 100 µM | 89.9 µM | > 100 µM | 
CCOc1cccc(/C=N/NC(=O)C(=O)Nc2cccc(C(F)(F)F)c2)c1O | > 100 µM | 25.3 µM | > 100 µM |  | > 100 µM | > 100 µM | > 100 µM | 4.51 µM | 2.04 µM | 1.03 µM | 2.43 µM |  |  |  | 2 µM | 5.28 µM | 1.06 µM | 3.96 µM | 50.1 µM | 0.398 µM
CCOC(=O)c1cc(/C=C/C(C)=C/C(=O)OC)oc1C | > 100 µM | > 100 µM | > 100 µM | > 100 µM | > 100 µM | > 100 µM | > 100 µM | > 100 µM |  |  |  |  |  | > 100 µM |  |  |  |  |  | 
O=C(c1ccncc1)n1nc(-c2ccccc2)c(N=Nc2ccccc2[N+](=O)[O-])c1-c1ccccc1 | > 100 µM |  | > 100 µM | > 100 µM | > 100 µM | > 100 µM | > 100 µM | > 100 µM |  |  |  |  |  | > 100 µM |  |  |  |  |  | 
CN(C)CCCNC(=O)c1ccc2c(c1)oc1cc3ccccc3c(=O)n12 | 16 µM | 16.1 µM | 32.5 µM | 45.7 µM | > 50 µM | > 50 µM | > 50 µM | > 50 µM | 5.98 µM | 8.33 µM | 14.6 µM | 17.6 µM | > 50 µM | > 50 µM | 27.2 µM | 38.7 µM | > 50 µM |  |  | 40.9 µM
CC[O-].CC[O-].O=S(=O)([O-])c1ccc([O-])c2ncccc12.O=S(=O)([O-])c1ccc([O-])c2ncccc12.[Ti+4] | > 100 µM | > 100 µM | > 100 µM | > 100 µM | > 100 µM | > 100 µM | > 100 µM | > 100 µM | 39.1 µM | 59.1 µM | 83.2 µM | > 100 µM |  |  | > 100 µM | > 100 µM | 66.2 µM | > 100 µM | > 100 µM | 52.9 µM
Nc1ccccc1C#C/C=C\C#Cc1ccccc1 | 77.7 µM | 75 µM | 29.3 µM | 41.1 µM | > 100 µM | 32.4 µM | 81.3 µM | 27.7 µM | 17.8 µM | 23.9 µM | 14.9 µM | 15.3 µM |  |  | 12.8 µM | 32 µM | 13 µM | 11.8 µM | 31.3 µM | 12.1 µM
Cc1c(C(=O)NCCN2CCOCC2)cn2ncnc(Oc3ccc(NC(=O)Nc4ccc(Cl)c(C(F)(F)F)c4)cc3)c12 |  |  |  |  |  | 5.61 µM |  | 2.84 µM |  |  |  |  | 1.02 µM | 2.8 µM |  |  | 1.34 µM |  |  | 2.37 µM
C/C=C/C=C/C=C/C=C/C(=O)O | > 100 µM | > 100 µM | > 100 µM | > 100 µM | > 100 µM | > 100 µM | > 100 µM | > 100 µM |  |  |  |  |  |  |  |  |  |  | > 100 µM | 
Cc1nc2sccn2c1-c1csc(Nc2cccc(Cl)c2C)n1 | 49.2 µM | > 100 µM | 43.7 µM |  | > 100 µM | > 100 µM | > 100 µM | 19.8 µM | 3.23 µM | 6.84 µM | 6.75 µM |  |  |  | 2.12 µM | 21.2 µM | 3.93 µM | 3.24 µM | 48.5 µM | 3.05 µM
Cc1ccc(-c2cc(-c3ccco3)c(C#N)c(=O)n2C2OC(OC(=O)c3ccccc3)C(OC(=O)c3ccccc3)C2OC(=O)c2ccccc2)cc1 (configuration not stated) | > 100 µM | > 100 µM |  | > 100 µM | > 100 µM |  | > 100 µM | > 100 µM |  |  |  |  |  | 59.4 µM |  |  |  |  |  | 
